From patent US20260216156A1, “METHODS AND COMPOSITIONS FOR THE TREATMENT OF HEARING DISORDERS” (Gateway Biotechnology, Inc., priority 2023, published 2026)
Read-outs that look alike come from different tables or passages of the source.

Legend:
[1] = cited from earlier work
[2] = Ciliotoxicity of microemulsion formulation; details: microemulsion: 8% Labrafil M 1944CS, 30% Cremophor RH 40/ethanol (3:1) and water
[3] = Pharmacokinetics after intranasal administration, blood samples, NMDP by HPLC; format: in vivo
[4] = tested on: mice suffering from noise induced tinnitus; test: Sound-based avoidance detection (SBAD), No-Go trials; format: in vivo; details: for No-Go trial correct rate: tinnitus mice
Procedure: Using a shuttle box divided into two compartments, mice were trained to cross from side to side with sound cues in the “Go” trials and remain still in the absence of sound in the “No-Go” trials for 15 days. […] The sound cues were randomly played as white noise or narrow-band noise at 5, 10, 16, 20, and 32 kHz with sound intensities randomly at 75, 80, or 85 dB. […] Additionally, a hurdle was added on training 11 to reinforce the training. After the 15th training day, mice were tested for 3 days to obtain a baseline score to be compared after noise exposure, as well as retraining for 3 days. Following the successful completion of training so that mice reached a high percentage of success in the trials, the mice were exposed to a noise-induced trauma for tinnitus. To ensure that the mice still have their hearing, one ear was protected with an ear plug, while the other ear was exposed to the noise. The mice were placed in a sound booth where they were exposed to 120 dB broadband noise at 4-25 kHz for 2-4 hours. Following the noise exposure, the mice were housed for one month, and then tested to see if they have developed tinnitus. In these testing periods, the mice were tested for three days in the shuttle boxes, where they underwent the Go and No-Go trials, however in the No-Go trials the mice were not shocked, as it is expected that mice with tinnitus would cross compartments in the absence of a sound cue. The mice were continued to be shocked in the Go trials in order to ensure that they have retained their hearing and can hear the sound cues. […] To insure there is a significant difference in the No-Go trial scores, chi-square tests were completed comparing the post-noise exposure tests to the baseline tests. However, if tinnitus is not present in the mice, tests were done after waiting one more month, and another if needed. Mice received dosages of NMDP initially via intraperitoneal injection (i.p.). The Go and No-Go scores for the tests were compared using chi-square tests in Social Science Statistics. […] Following this conclusion, the mice were tested accordingly to determine if their No-Go scores could be improved by different drug doses and combinations.

[5] = tested on: mice suffering from noise induced tinnitus; test: Sound-based avoidance detection (SBAD), Go trials; format: in vivo
Procedure: Using a shuttle box divided into two compartments, mice were trained to cross from side to side with sound cues in the “Go” trials and remain still in the absence of sound in the “No-Go” trials for 15 days. […] The sound cues were randomly played as white noise or narrow-band noise at 5, 10, 16, 20, and 32 kHz with sound intensities randomly at 75, 80, or 85 dB. […] Additionally, a hurdle was added on training 11 to reinforce the training. After the 15th training day, mice were tested for 3 days to obtain a baseline score to be compared after noise exposure, as well as retraining for 3 days. Following the successful completion of training so that mice reached a high percentage of success in the trials, the mice were exposed to a noise-induced trauma for tinnitus. To ensure that the mice still have their hearing, one ear was protected with an ear plug, while the other ear was exposed to the noise. The mice were placed in a sound booth where they were exposed to 120 dB broadband noise at 4-25 kHz for 2-4 hours. Following the noise exposure, the mice were housed for one month, and then tested to see if they have developed tinnitus. In these testing periods, the mice were tested for three days in the shuttle boxes, where they underwent the Go and No-Go trials, however in the No-Go trials the mice were not shocked, as it is expected that mice with tinnitus would cross compartments in the absence of a sound cue. The mice were continued to be shocked in the Go trials in order to ensure that they have retained their hearing and can hear the sound cues. […] To insure there is a significant difference in the No-Go trial scores, chi-square tests were completed comparing the post-noise exposure tests to the baseline tests. However, if tinnitus is not present in the mice, tests were done after waiting one more month, and another if needed. Mice received dosages of NMDP initially via intraperitoneal injection (i.p.). The Go and No-Go scores for the tests were compared using chi-square tests in Social Science Statistics. […]

[6] = Microemulsion formulation: NMDP solubility and droplet size; format: physicochemical; details: aqueous with cosolvent or surfactant or cyclodextrin, 8% Labrafil M 1944CS, 30% Cremophor RH 40/ethanol (3:1) and water
[7] = cited from earlier work; for Bioavailability outside of the central nervous system: humans
[8] = after feeding to rats; cited from earlier work
[9] = anesthetized rats, cited from earlier work

For `COCCOC(=O)C1=C(C)NC(C)=C(C(=O)OC(C)C)C1c1cccc([N+](=O)[O-])c1` (centres unmarked) [NMDP, nimodipine], the Water solubility [1] is listed as 12 µg/mL, the “water solubility (in words)” value [1] is listed as “poor water solubility” and the solubility in ethanol ([1]; ethanol) is listed as “freely soluble”. For the same compound, the ciliotoxicity [2] was “no ciliotoxicity”, the “pharmacokinetics, intranasal versus intravenous” value ([3]; Example 1: carrier, citrate buffer, benzalkonium chloride, water, about 50 mg/mL, 50 μL per nasal cavity) was “comparable to that of intravenously administered NMDP” and the “pharmacokinetics, intranasal versus intravenous” value ([3]; Example 2: carriers, non-aqueous solvent, surfactant, about 50 mg/mL, 50 μL per nasal cavity) was “comparable to that of intravenously administered NMDP”. For the same compound, the “pharmacokinetics, intranasal versus intravenous” value ([3]; Example 3: mPEG350, PEG400, water, no non-ionic surfactant, about 100 mg/ml, 50 μL per nasal cavity) was “comparable to that of intravenously administered NMDP”, the “pharmacokinetics, intranasal versus intravenous” value ([3]; Example 4: mPEG350, PEG400, water, ethanol, no non-ionic surfactant, about 100 mg/mL, 50 μL per nasal cavity) was “comparable to that of intravenously administered NMDP” and the “pharmacokinetics, intranasal versus intravenous” value ([3]; Example 7: six volunteer subjects with tinnitus, nasal spray of Example 5, 50 μL per nare, about 20 mg) was “comparable to that of intravenously administered NMDP”. The “pharmacokinetics, intranasal versus intravenous” value ([3]; Example 8: vesicular composition (phospholipid, C2-C4 alcohols, water), about 200 mg/mL, 50 μL per nasal cavity) was “comparable to that of intravenously administered NMDP”, the bioavailability ([3]; human, plasma, inhaled or intranasal, microemulsion, single intranasal administration, 2 mg/kg, read-out: absolute bioavailability) was ~32% and the “time of plasma concentration peak” value ([3]; microemulsion, single intranasal administration, 2 mg/kg) was 1 h. The “No-Go scores: behavioral changes” value ([4]; mice, 10, 30, and 50 mg/kg i.p.) was “did not cause any behavioral changes”, the “No-Go trial correct rate” value ([4]; 30 mg/kg i.p.) was ~100 % correct and the “No-Go trial correct rate” value ([4]; 50 mg/kg i.p.) was ~100 % correct. The “No-Go trial correct rate” value ([4]; intranasal formulation of Example 15 F1, 0.9 mg/mouse (or 30 mg/kg)) was ~100 % correct, the “Go trial correct rate” value ([5]; 10 mg/kg i.p.) was ~100 % correct and the “Go trial correct rate” value ([5]; 30 mg/kg i.p.) was ~100 % correct. For the same compound, the “Go scores: effect on ability to hear the sounds presented” value ([5]; i.p.) was “did not have an effect”, the solubility [6] was ≤ 6400 µg/mL and the “share of NMDP reaching the brain” value ([7]; due to high affinity binding of plasma proteins) was 5%. The “Bioavailability outside of the central nervous system” value ([7]; intravenous administration) was 100% and the “Bioavailability outside of the central nervous system” value ([7]; oral administration, extensive first-pass metabolism) was 3-30%.
For Phaseolus vulgaris hemagglutinin, the oral bioavailability [8] is given as “more than 10%”.
In the case of “human growth hormone: human growth hormone, nasal bioavailability modestly increased by N-acetyl-L-cysteine”, the nasal bioavailability ([9]; with N-acetyl-L-cysteine) is given as 12.2% and the nasal bioavailability ([9]; without N-acetyl-L-cysteine) is given as 7.5%.
